Assay results published in a melting point compilation (Tetko et al.; mined from patent text by program, amines drawn as free bases though some values may be those of a salt).

| melting point [°C] | Compound |
| --- | --- |
| 132 to 133 | O=C(O)Cc1ccc(Cc2nc3c(F)c(F)cc(F)c3s2)s1 |
| 192 to 193 | COC(=O)Cc1ccc2nc(C(F)(F)F)cc(O)c2c1 |
| 174 | CCOC(=O)c1cn(-c2nonc2C)c2cc(F)c(F)c(C)c2c1=O |
| 170 to 190 | COc1c(C)c2c(c(NC(=O)N(C)C)c1C/C=C(\C)CCC(=O)O)C(=O)OC2 |
| 178 to 179 | Cc1cc(-c2[nH]c3c([N+](=O)[O-])cccc3c2C)cc(C)c1O |
| 159 to 161 | O=C(c1ccc(-c2ncc[nH]2)cc1)N1CCN(S(=O)(=O)c2ccc3cc(Cl)ccc3c2)CC1 |
| 214 to 216 | Cc1ccccc1N1CCN(CCn2c(=O)[nH]c3cscc3c2=O)CC1 |
| 114 to 115 | CN1CCN(c2c3c(nc4cc(Cl)ccc24)CCN(C)C3)CC1 |
| 78 | CCCC1(Br)Cc2c3c(c(C)c(C)c2C1=O)OC(C(=O)O)C3 (stereo not given) |
| 205 to 207 | CNC(=O)[C@]1(n2cnc3c(NCc4cccc(I)c4)nc(Cl)nc32)SC[C@H](O)[C@@H]1O |
| 55 | O=S(=O)(Cl)c1c(Cl)sc(Cl)c1Cl |
| 153 to 155 | Nc1cc(C(=O)O)c(Cl)cc1F |
| 132 to 133 | O=S1(=O)NCN(C2CC2)c2c1ccc(Cl)c2Cl |
| 146 to 151 | COc1cccc(Oc2ccc([N+](=O)[O-])c(C(=O)O)c2)c1 |
| 193 to 194 | O=C1Nc2c(cc(F)c(F)c2F)C1=O |
| 255 to 257 | CC1(C)Oc2ccc(C#N)cc2[C@@H](n2c(=O)[nH]c3ccccc32)[C@@H]1O (relative stereo) |
| 160 to 162 | Cc1nc(-c2cc([N+](=O)[O-])ccc2F)cs1 |
| 226 to 227 | CS(=O)(=O)NCCn1c2ccccc2c(=O)c2ccccc21 |
| 184 to 185 | CC(C)(C(=O)OCC(=O)c1ccccc1)n1c(=O)[nH]c2cc3ccccc3cc2c1=O |
| 156 to 166 | CCN1C(=O)CCC(C)(C)c2cc(Nc3ncc(Cl)c(N[C@H]4[C@@H](C(N)=O)[C@@H]5C=C[C@H]4C5)n3)c(OC)cc21 |
| 222 to 224 | O=S(=O)(c1nc[nH]n1)c1ccc(C(F)(F)F)cc1Cl |
| 178 to 179 | O=C(/C=C/c1ccc(S(=O)(=O)N2CCN(c3cccc(C(F)(F)F)c3)CC2)cc1)NO |
| 181 | COc1ccc(-c2nc(-c3ccc(Cl)c(Cl)c3)ncc2C(=O)N2CCOCC2)cc1OC |
| > 240 | Cn1c(CN2C(=O)C3(COc4cc5c(cc43)OCCO5)c3ccccc32)nc2ccccc21 (stereo not given) |
| 221 to 223 | O=c1[nH]c2cc(C(F)(F)F)cc(Br)c2[nH]c1=NO |
| 126 to 129 | CCOC(=O)C1=C(COCCNCC(N)=O)NC(C)=C(C(=O)OC)C1c1ccccc1Cl (stereo not given) |
| 152 to 153 | O=Cc1ccc(-c2cnco2)[nH]1 |

| melting point [°C] | Compound |
| --- | --- |
| 94 to 96 | CCOC(=O)c1c2ccc(Cl)cc2c(-c2ccccc2)n1C |
| > 270 | COC(=O)c1ccc(-c2nnc(-c3cccc(NC(=O)Nc4ccc(C(C)C)cc4)c3)o2)cc1 |
| 102 to 105 | CCOC(=O)C1=C(C)NC(c2ccccc2)=NC1c1ccccc1[N+](=O)[O-] (stereo not given) |
| 187 to 189 | Cc1cnc(N)c(S(N)(=O)=O)c1 |
| 119 | CCOC(=O)C1=C(N)N=C(OCC)C(C(=O)OCC)C1c1ccc(C)cc1 (stereo not given) |
| 132 to 133 | CCC(CC)CC(=O)C1=C(O)c2cc(OC)c(OC)c(OC)c2C(O)(c2ccc(OC)c(OC)c2)C1C(=O)OC (stereo not given) |
| 167 to 169 | Fc1cccc(F)c1-c1cnc(-c2ccc(Br)cc2)nn1 |
| 205 | Cc1cc(S(C)(=O)=O)ccc1-n1nc(C(F)(F)F)cc1-c1ccc(-c2ccco2)cc1 |
| 72 to 75 | CC(C)c1cc(-c2ccc(F)cc2)c(C=O)c(C(C)C)n1 |
| 260 to 262 | CCOC(=O)c1c(-c2ccc(N)cc2)c(C#N)c(=O)n2ccccc12 |
| 42 to 43 | Nc1ccc(OCc2ccc(F)cc2)cc1F |
| > 280 | Cc1c(-c2ccc3oc(=O)n(C)c3c2)nc2c(O)cccn12 |
| 115 to 117 | O=C(Nc1ccc(-n2nc(C(F)(F)F)cc2C(F)(F)F)cc1)c1ccc(Cl)nc1Cl |
| 170 to 171 | Cc1cc(OCCc2nc(-c3ccccc3)oc2C)cc(C)c1CN(O)C(N)=O |
| 183 | CCOC(=O)C1=C(C)NC(N)=C(C(=O)OCC)C1c1ccco1 (stereo not given) |
| 300 to 301 | CS(=O)(=O)c1ccnc(-c2nc(=O)c3ccccc3s2)c1 |
| 226 to 228 | CCOC(=O)c1nc(N)sc1-c1nc2cc(C)ccn2c1C |
| 205 to 210 | CCCc1c(COc2ccc(Cc3nnnn3CC(=O)O)cc2)ccc(C(C)=O)c1O |
| 123 | CCNc1ccc(S(=O)(=O)Nc2onc(C)c2C)cc1 |
| 204 to 206 | O=S1(=O)CCC(c2cc(F)ccc2F)(S(=O)(=O)c2ccc(Cl)cc2)CC1 |
| 194 | NS(=O)(=O)c1ccc(C2=C(c3ccc(-c4cscn4)cc3)C(=O)OC2)cc1F |
| 125 to 127 | CC1(c2ccc(N)cc2F)CNC1=O (stereo not given) |
| 178 to 179 | Cc1cc(C)c2nc(CO)n(C)c2n1 |
| 200 to 202 | CN1C(=O)CCC2(C)c3ccc(CC(=O)O)cc3CCC12 (stereo not given) |
| 84 to 87 | CCCc1c(OCCOc2ccccc2C(=O)OC)ccc(C(C)=O)c1O |
| > 300 | O=c1[nH]c2cc(Cl)c(Cl)cc2cc1P(=O)(O)O |
| 220 to 221 | Cc1ccc(S(=O)(=O)N2c3ccc(Cl)cc3C(O)(c3ccccc3Cl)C2C(=O)N(C)C)cc1 (stereo not given) |

The next lines start with the compound.

| Compound | melting point [°C] |
| --- | --- |
| Cc1ccccc1C(=O)Nc1ccc(C(=O)N2Cc3ccc(Cl)n3Cc3ccccc32)cc1 | 185 to 187 |
| Clc1ncc(CN2CC3(COc4cc5c(cc43)OCO5)c3ccccc32)s1 (stereo not given) | 195 to 198 |
| COC(=O)C(O)c1ccc([N+](=O)[O-])cc1 (stereo not given) | 56 to 58 |
| COc1cc2c(cc1OC)CN(CCc1ccc(NC(=O)c3cccc4c(=O)c5cccc(OC)c5sc34)cc1)CC2 | 218 to 219 |
| Cc1cc(-n2ccnc2)c2cccc(OCc3c(Cl)ccc(S(=O)(=O)N4CCC[C@H]4C(=O)NCCCN4CCCC4)c3Cl)c2n1 | 120 |
| O=C(O)Cc1ccc(NC(=O)C(COc2cccnc2)NS(=O)(=O)c2ccc(Br)cc2)cc1 (racemic) | 205 to 207 |
| CCCCCCCCCCC(Cn1ccnc1)SCCCC (stereo not given) | 95 to 97 |
| CCCCCCCCCCCCCc1nnc(N)o1 | 147 to 150 |
| CCOC(=O)Nc1ccc(C(c2ccccc2)n2ccnc2)cc1COC1CCCCO1 (stereo not given) | 132 |
| NC1SC2=CC=CC2=C1C(=O)c1ccc(Br)cc1 (stereo not given) | 205 to 206 |
| CC(C)N1CCCN=C1SC1=C(O)CC(c2ccccc2)OC1=O (stereo not given) | 103 to 105 |
| CN(C)CCNc1ccc(Cl)nn1 | 86 to 92 |
| CCCCNc1ccc(-c2cc3ccccc3o2)cc1 | 113 to 115 |
| O=C(O)C(=O)c1ccc(OCCOc2cc3ccccc3cc2OCCO)cc1 | 176 to 177 |
| CCS(=O)(=O)N1CCSc2ccccc2C1 | 78 to 80 |
| Cc1cc(Sc2ccccc2)ccc1[N+](=O)[O-] | 69 to 75 |
| C=CC(=O)Oc1c(C(C)c2cc(C(C)(C)CC)cc(C(C)(C)CC)c2O)cc(C(C)(C)CC)cc1C(C)(C)CC (stereo not given) | 119 to 121 |
| CNCCCCn1c(-c2ccc(Br)cc2)csc1=Nc1ccccc1 | 56 to 57 |
| CC(=O)c1cnc2c(n1)CCCC2 | 42 to 45 |
| COc1cccc(OC)c1-c1cc(C(=O)NC2(C(=O)O)C3CC4CC(C3)CC2C4)nn1-c1ccc(C(=O)NC2CC(C)(C)NC(C)(C)C2)cc1C(C)C (stereo not given) | 270 to 272 |
| CN(C)N=Nc1cc(-c2ccccc2)sc1C(N)=O | 220 to 222 |
| O=C1C(c2ccccc2)SCN1CCCCBr (stereo not given) | 48 to 50 |
| COC(=O)C1CCCN1S(N)(=O)=O (stereo not given) | 166 to 168 |

| Compound | melting point [°C] |
| --- | --- |
| COc1ccc(C(=O)c2ccc(OCCBr)cc2)cc1 | 112 to 113 |
| O=C(O)CCCOc1cccc(OCc2ccccc2)c1 | 76 to 77 |
| COc1cc(COc2nn(-c3ccccc3)cc2C=O)ccc1OCc1nc(-c2cccc(C#N)c2)oc1C | 161 to 162 |
| O=C(O)CNC1Cc2ccccc2C1 | 211 to 214 |
| CC(=O)Nc1ccc(C(=O)N2CC3CC(CN(Cc4ccc(Cl)cc4)C3)C2)cc1 | 181 |
| CCCCCN(CCCCC)C(=O)C(CCC(=O)O)CS(=O)(=O)c1ccc(C(C)=O)cc1 (stereo not given) | 69 to 71 |
| CC(C)(C)OC(=O)N1C[C@@H](c2c[nH]c3ccccc23)[C@H](c2cn3c4c(cccc24)CCC3)C1 | 239 to 240 |
| CC(=O)C=Cc1ccc(C#N)cc1 | 103 to 106 |
| CCOC(=O)C(C)(C)CCCCCOc1ccc(NC(=O)CCCCCn2ccnc2)cc1 | 59 |
| C/C(=C(\C#N)C(N)=S)N1CCCN(c2ccc(F)c(Cl)c2)CC1 | 148 to 150 |
| Cc1nnc2n1-c1ccc([N+](=O)[O-])cc1C(c1ccccc1Cl)=NC2 | 231 to 233 |
| c1ccc(N=C2N=C(c3ccccc3)N=C2Nc2ccccc2)cc1 | 201 |
| CCc1nc(C(=O)NCC(C=C(C)C(CC)[N+](=O)[O-])=NO)c[nH]1 (stereo not given) | 75 to 79 |
| c1ccc(CN2CCC3(C2)OC(c2ccccc2)c2ccccc23)cc1 (stereo not given) | 85 to 87 |
| O=C1CCN(C(=O)OCc2ccc([N+](=O)[O-])cc2)CC1 | 123 to 124 |
| O=C(Cc1ccccc1)NCCc1ccccc1 | 91 to 92 |
| CCC(C)c1cc(Cl)cc(Cl)c1OCC(=O)NCCCCNC(=O)OC(C)(C)C (stereo not given) | 50 |
| CN(CCc1nc(-c2cc(C(C)(C)C)c(O)c(C(C)(C)C)c2)cs1)C(=O)OC(C)(C)C | 204 |
| O=C(CCCCCNC(=O)OCc1ccccc1)NCCCCCO | 92.5 to 94 |
| CC1CCN(c2cc3nc(C(C)(C)C)sc3cc2NC(=S)Oc2ccccc2)CC1 | 201 to 205 |
| CC(=O)Oc1cc(C)cc2c1C1=C(CCC(C)C1)C(C)(C)O2 (stereo not given) | 115 to 119 |
| C=CC(=O)NC(=O)N1CC1C#N (stereo not given) | 158 to 160 |
| O=C(c1ccc2[nH]ccc2c1)N1CCN(CCc2ccc([N+](=O)[O-])cc2)CC1 | 204 to 206 |
